Data reported in ChEMBL document CHEMBL3885881, “DrugMatrix”.

Organism: Rattus norvegicus
Test: DrugMatrix - Regimen: Daily Repeat
Type: toxicity, organism-based, Sprague-Dawley
Set-up: regimen Daily Repeat, gender Male, age 6-8 weeks
Details: in vivo, po, route oral GAVAGE, vehicle 100 % WATER; for ABSOLUTE BASOPHIL / ABSOLUTE EOSINOPHIL / ABSOLUTE LYMPHOCYTE / ABSOLUTE MONOCYTE / ABSOLUTE SEGMENTED NEUTROPHIL / BASOPHIL / EOSINOPHIL / ERYTHROCYTE COUNT / HEMATOCRIT / HEMOGLOBIN / LEUKOCYTE COUNT / LYMPHOCYTE / MEAN CORPUSCULAR HEMOGLOBIN / MEAN CORPUSCULAR HEMOGLOBIN CONCENTRATION / MEAN CORPUSCULAR VOLUME / MONOCYTE / NEUTROPHIL / NUCLEATED RED BLOOD CELLS / PLATELET COUNT: tissue Blood; for ALANINE AMINOTRANSFERASE / ALBUMIN / ALKALINE PHOSPHATASE / ASPARTATE AMINOTRANSFERASE / BLOOD UREA NITROGEN / CARBON DIOXIDE / CHLORIDE / CHOLESTEROL / CREATINE PHOSPHOKINASE / CREATININE / GLUCOSE / LACTATE DEHYDROGENASE / LIPASE / PHOSPHORUS / POTASSIUM / SODIUM / TOTAL BILIRUBIN / TOTAL PROTEIN / URIC ACID: tissue Plasma
[1] = 175 mg/kg, 120 h, dose level High, time 5 day
[2] = […], 72 h, dose 5.8 mg/Kg, dose level Low, time 3 day
[3] = […], 120 h, dose 5.8 mg/Kg, dose level Low, time 5 day

## O=c1[nH]c(=O)n(C2CCCO2)cc1F (centres undefined) [TEGAFUR]
[1]
  ABSOLUTE BASOPHIL: 0 CELLS/uL
  ABSOLUTE EOSINOPHIL: 47 CELLS/uL
  ABSOLUTE LYMPHOCYTE: 11945 CELLS/uL
  ABSOLUTE MONOCYTE: 125.33 CELLS/uL
  ABSOLUTE SEGMENTED NEUTROPHIL: 416 CELLS/uL
  BASOPHIL: 0%
  EOSINOPHIL: 0.33%
  ERYTHROCYTE COUNT: 6.13 x10E6/uL
  HEMATOCRIT: 37.33%
  HEMOGLOBIN: 14.9 G/DL
  LEUKOCYTE COUNT: 12.53 x10E3/uL
  LYMPHOCYTE: 95.33%
  MEAN CORPUSCULAR HEMOGLOBIN: 24.33 pg
  MEAN CORPUSCULAR HEMOGLOBIN CONCENTRATION: 39.9 G/DL
  MEAN CORPUSCULAR VOLUME: 60.9 fL
  MONOCYTE: 1%
  NEUTROPHIL: 3.33%
  NUCLEATED RED BLOOD CELLS: 0 /100WBC
  PLATELET COUNT: 1252.33 x10E3/uL
  ALANINE AMINOTRANSFERASE: 40 u/L
  ALBUMIN: 4.43 G/DL
  ALKALINE PHOSPHATASE: 333 u/L
  ASPARTATE AMINOTRANSFERASE: 113 u/L
  BLOOD UREA NITROGEN: 19.67 mg/dL
  CARBON DIOXIDE: 26 mmol/L
  CHLORIDE: 106 MEQ/L
  CHOLESTEROL: 80.67 mg/dL
  CREATINE PHOSPHOKINASE: 419.33 u/L
  CREATININE: 0.24 mg/dL
  GLUCOSE: 146.33 mg/dL
  LACTATE DEHYDROGENASE: 797.67 u/L
  LIPASE: 9.33 u/L
  PHOSPHORUS: 10.2 mg/dL
  POTASSIUM: 5.48 MEQ/L
  SODIUM: 149.83 MEQ/L
  TOTAL BILIRUBIN: 0.17 mg/dL
  TOTAL PROTEIN: 6.13 G/DL
  URIC ACID: 1.43 mg/dL
[2]
  ABSOLUTE BASOPHIL: 0 CELLS/uL
  ABSOLUTE EOSINOPHIL: 50 CELLS/uL
  ABSOLUTE LYMPHOCYTE: 13948.67 CELLS/uL
  ABSOLUTE MONOCYTE: 166.67 CELLS/uL
  ABSOLUTE SEGMENTED NEUTROPHIL: 1434.67 CELLS/uL
  BASOPHIL: 0%
  EOSINOPHIL: 0.33%
  ERYTHROCYTE COUNT: 5.51 x10E6/uL
  HEMATOCRIT: 34.4%
  HEMOGLOBIN: 13.43 G/DL
  LEUKOCYTE COUNT: 15.6 x10E3/uL
  LYMPHOCYTE: 89.67%
  MEAN CORPUSCULAR HEMOGLOBIN: 24.37 pg
  MEAN CORPUSCULAR HEMOGLOBIN CONCENTRATION: 39.03 G/DL
  MEAN CORPUSCULAR VOLUME: 62.43 fL
  MONOCYTE: 1%
  NEUTROPHIL: 9%
  NUCLEATED RED BLOOD CELLS: 0 /100WBC
  PLATELET COUNT: 1387 x10E3/uL
  ALANINE AMINOTRANSFERASE: 47.33 u/L
  ALBUMIN: 4.23 G/DL
  ALKALINE PHOSPHATASE: 325.33 u/L
  ASPARTATE AMINOTRANSFERASE: 100.33 u/L
  BLOOD UREA NITROGEN: 15.33 mg/dL
  CARBON DIOXIDE: 28.33 mmol/L
  CHLORIDE: 100.33 MEQ/L
  CHOLESTEROL: 86 mg/dL
  CREATINE PHOSPHOKINASE: 626 u/L
  CREATININE: 0.22 mg/dL
  GLUCOSE: 138.67 mg/dL
  LACTATE DEHYDROGENASE: 764.67 u/L
  LIPASE: 9.67 u/L
  PHOSPHORUS: 12.43 mg/dL
  POTASSIUM: 6.48 MEQ/L
  SODIUM: 143.37 MEQ/L
  TOTAL BILIRUBIN: 0.17 mg/dL
  TOTAL PROTEIN: 5.97 G/DL
  URIC ACID: 1.57 mg/dL
[3]
  ABSOLUTE BASOPHIL: 0 CELLS/uL
  ABSOLUTE EOSINOPHIL: 53.67 CELLS/uL
  ABSOLUTE LYMPHOCYTE: 12194.67 CELLS/uL
  ABSOLUTE MONOCYTE: 43 CELLS/uL
  ABSOLUTE SEGMENTED NEUTROPHIL: 1808.67 CELLS/uL
  BASOPHIL: 0%
  EOSINOPHIL: 0.33%
  ERYTHROCYTE COUNT: 5.38 x10E6/uL
  HEMATOCRIT: 32.9%
  HEMOGLOBIN: 13.1 G/DL
  LEUKOCYTE COUNT: 14.1 x10E3/uL
  LYMPHOCYTE: 86.67%
  MEAN CORPUSCULAR HEMOGLOBIN: 24.33 pg
  MEAN CORPUSCULAR HEMOGLOBIN CONCENTRATION: 39.83 G/DL
  MEAN CORPUSCULAR VOLUME: 61.1 fL
  MONOCYTE: 0.33%
  NEUTROPHIL: 12.67%
  NUCLEATED RED BLOOD CELLS: 0.33 /100WBC
  PLATELET COUNT: 1303.67 x10E3/uL
  ALANINE AMINOTRANSFERASE: 51 u/L
  ALBUMIN: 4.13 G/DL
  ALKALINE PHOSPHATASE: 305.67 u/L
  ASPARTATE AMINOTRANSFERASE: 93.67 u/L
  BLOOD UREA NITROGEN: 16 mg/dL
  CARBON DIOXIDE: 24.33 mmol/L
  CHLORIDE: 102.67 MEQ/L
  CHOLESTEROL: 77.33 mg/dL
  CREATINE PHOSPHOKINASE: 365 u/L
  CREATININE: 0.22 mg/dL
  GLUCOSE: 140 mg/dL
  LACTATE DEHYDROGENASE: 424.33 u/L
  LIPASE: 9.33 u/L
  PHOSPHORUS: 11.73 mg/dL
  POTASSIUM: 6.27 MEQ/L
  SODIUM: 142.73 MEQ/L
  TOTAL BILIRUBIN: 0.27 mg/dL
  TOTAL PROTEIN: 5.97 G/DL
  URIC ACID: 1.6 mg/dL
